pIC50: −log10 of the molar value. Where a name gives a salt, the structure may show the parent alone.
How the values were obtained:
HeLa = experiment: cells; settings: Homo sapiens, 24 h
[1] = target: T1, Alpha-ketoglutarate-dependent dioxygenase FTO (Homo sapiens, UniProt Q9C0B1)
[2] = target: T1, Alpha-ketoglutarate-dependent dioxygenase FTO; remark: listed apart in the source
ECa-109 cell line = experiment: cells; settings: Homo sapiens, ECa-109, 72 h
[3] = target: T1, Alpha-ketoglutarate-dependent dioxygenase FTO; remark: listed apart in the source
cells = settings: Homo sapiens, AML1
METTL3/METTL14 [4] = target: T2, METTL3/METTL14 (Homo sapiens, UniProt Q86U44)
METTL3/METTL14 [5] = target: T2, METTL3/METTL14; remark: listed apart in the source
Huh-7 = experiment: cells; settings: Homo sapiens
[6] = target: N(6)-adenosine-methyltransferase catalytic subunit METTL3 (Mus musculus, UniProt Q8C3P7)
RNA demethylase ALKBH5 = RNA demethylase ALKBH5 (Homo sapiens, UniProt Q6P6C2)
METTL3/METTL14 [7] = target: T2, METTL3/METTL14; remark: listed apart in the source
[8] = target: T3, N6-adenosine-methyltransferase catalytic subunit (Homo sapiens, UniProt Q86U44)
[9] = target: T3, N6-adenosine-methyltransferase catalytic subunit; remark: listed apart in the source
[10] = target: T3, N6-adenosine-methyltransferase catalytic subunit; remark: listed apart in the source
[11] = target: T3, N6-adenosine-methyltransferase catalytic subunit; remark: listed apart in the source
[12] = target: YTH domain-containing protein 1 (Homo sapiens, UniProt Q96MU7)
OCI-AML2 = experiment: cells; settings: Homo sapiens

CCS(=O)(=O)Nc1oc(-c2ccc(Cl)cc2)c(O)c1O
pIC50 (HeLa): 5.06

O=C(O)c1ccccc1-c1c2cc(Cl)c(=O)cc-2oc2cc(O)c(Cl)cc12
pIC50 [1]: 6.19

N=C(N)c1ccc2cc(OC(=O)c3ccc(N=C(N)N)cc3)ccc2c1 [NAFAMOSTAT MESYLATE]
pIC50 [2]: 4.86

COc1c(C)cnc(Cn2cc(CNC(=O)c3c(F)c(F)c(F)c(F)c3F)nn2)c1C
pIC50 (ECa-109 cell line): 6.08

CC(=O)Oc1cccc2c1C(=O)c1c(OC(C)=O)cc(C(=O)O)cc1C2=O [DIACEREIN]
pIC50 [2]: 5.82

COc1ncc(-c2ccc3sc(N)nc3c2)cn1
pIC50 [3]: 5.47

Cc1noc(C)c1-c1cc(Cl)c(Nc2ccccc2C(=O)O)c(Cl)c1
GI50 (cells): 23000 nM

O=C(O)CC[C@@H](O)C(=O)O
pIC50 [3]: 3.88

Cc1noc(C)c1-c1cc(Cl)c(Nc2ccccc2C(=O)NO)c(Cl)c1
GI50 (cells): 800 nM

O=C(O)[C@H]1O[C@@H](Oc2cc3oc(-c4ccc(O)cc4)cc(=O)c3c(O)c2O)[C@H](O)[C@@H](O)[C@@H]1O [SCUTELLARIN]
pIC50 (METTL3/METTL14 [4]): 4.70

Nc1ncnc2c1ncn2[C@@H]1O[C@H](C[C@@H](N)CC[C@H](N)C(=O)O)[C@@H](O)[C@H]1O [SINEFUNGIN]
pIC50 (METTL3/METTL14 [5]): 5.89
GI50 (Huh-7): 24800 nM

O=C(NCc1cn2cc(CNCC3CCCCC3)ccc2n1)c1cc(=O)n2ccccc2n1
pIC50 [6]: 5.55
GI50 (Huh-7): 600 nM

CCCc1c(C)nc2c3ccccc3oc(=S)n12
pIC50 (RNA demethylase ALKBH5): 5.00

CC1(C)CCN(Cc2ccc3nc(Cn4cc(-c5cc(Br)cc6[nH]ncc56)nn4)cn3c2)CC1
pIC50 (METTL3/METTL14 [4]): 8.10

Clc1cc(-c2cn(Cc3cn4cc(CNCC5CCC5)ccc4n3)nn2)c2cn[nH]c2c1
pIC50 (METTL3/METTL14 [4]): > 8.30
pIC50 (METTL3/METTL14 [7]): 7.60
GI50 (Huh-7): 210 nM

O=C(O)c1ccccc1OCCc1cn(-c2ccc(-c3c(Cl)cccc3Cl)cc2)c2ccc(-c3ccc(F)cc3)cc12
pIC50 [8]: 5.40
pIC50 [9]: 5.55
pIC50 [10]: 5.40
GI50 (Huh-7): 14600 nM

Cc1ccc(Cl)c(Nc2ccccc2C(=O)O)c1Cl [MECLOFENAMIC ACID]
pIC50 [11]: 5.10

O=c1c2ccccc2[se]n1-c1ccccc1 [EBSELEN]
pIC50 [12]: 5.80

Cc1c(-c2ccc(-c3ccccc3F)cc2)nc2ccc(F)cc2c1C(=O)O [BREQUINAR]
pIC50 (OCI-AML2): 6.70

CCc1cc(N(C)CCOC)c2ccc(CCc3cncc(-n4cc(-c5ccn(C)n5)c5c(N)ncnc54)c3)cc2n1
pIC50 [9]: > 8.00
pIC50 [10]: > 6.00
pIC50 [11]: > 8.00
GI50 (Huh-7): < 1000 nM

C(=N\NC1=NCCN1)/c1c2ccccc2c(/C=N/NC2=NCCN2)c2ccccc12 [BISANTRENE]
pIC50 (OCI-AML2): 7.00

Cn1ccc(-c2cn([C@@H]3O[C@H](COc4ccc5ccc(N6CCC6)nc5c4)[C@@H](O)[C@@H]3F)c3ncnc(N)c23)n1
pIC50 [9]: > 8.00
pIC50 [10]: > 6.00
pIC50 [11]: > 8.00
GI50 (Huh-7): < 1000 nM

Nc1ncnc2c1ncn2[C@@H]1O[C@H](C(=O)NCCCNC(=O)c2ccccn2)[C@@H](O)[C@H]1O
pIC50 [2]: 5.82

COc1cc(-c2cn(Cc3cn4cc(CNCC5CCC5)ccc4n3)nn2)c2cn[nH]c2c1
pIC50 (METTL3/METTL14 [4]): > 8.30
GI50 (Huh-7): 160 nM

CCOC(=O)c1ccccc1Nc1c(Cl)ccc(C)c1Cl
pIC50 [11]: 5.15

Nc1ncnc2c1ncn2[C@@H]1O[C@H](CSCC[C@H](N)C(=O)O)[C@@H](O)[C@H]1O [S-ADENOSYLHOMOCYSTEINE]
pIC50 (METTL3/METTL14 [5]): 6.28

— ChEMBL document CHEMBL5584234, “Small molecules that regulate the N6-methyladenosine RNA modification as potential anti-cancer agents” (Eur J Med Chem, 2024)
